Tests used:
[1] = test system: cornea of a living rabbit; assay: Living corneal TER measurement requiring no anterior chamber centesis (conjunctival sac method); assay type: in vivo; conditions: 0.02% BAC
Procedure: Evaluation of Corneal Disorder Due to BAC by Living Corneal TER Measurement Requiring No Anterior Chamber Centesis (Referred to as Conjunctival Sac Method) (FIG. 1)
Silver-silver chloride electrode having a rod shape was placed on a cornea and into a conjunctival sac of a living rabbit, and a 0.02% BAC was administered thereto. A change in the corneal TER due to exposure to BAC was measured by a voltage-electric resistance value measuring device. A rubber ring (6 mm in the inner diameter) was fixed onto the cornea around the periphery of the electrode by using a bioadhesive (Aron alpha A from Sankyo Co., Ltd.) for insulation, so that an electric current is surely passed through the epithelium of the cornea. An AC current of ±20 μA was flowed, and a change curve of TER, a reduction of TER and a TER value after a lapse of 60 seconds from the exposure to 0.02% BAC, were compared with those from the conventional measuring method in which the anterior chamber centesis was carried out (comparative example 1). The TER value was calculated by subtracting an electric resistance value between the anterior chamber and the conjunctival sac obtained in a preliminary experiment from the measured value.

cornea of a rabbit = assay: Living corneal TER measurement using anterior chamber centesis (anterior chamber centesis method); assay type: in vivo; conditions: 0.02% BAC
Procedure: Evaluation of Corneal Disorder Due to BAC by Living Corneal TER Measurement Using Anterior Chamber Centesis (Referred to as “Anterior Chamber Centesis Method”)
In accordance with the method described in non-Patent Document 4 supra, electrodes were placed on a cornea and into an anterior chamber of a rabbit, and after administration of 0.02% BAC, a corneal TER was measured.

[2] = test system: cornea of a living rabbit; assay: Corneal TER measurement with the integrated TER measuring device of FIG. 6; assay type: in vivo, Japanese white rabbit; conditions: 0.02% BAC dropped onto the eye, one minute after the administration, device of FIG. 6, n=3
Text: A silver electrode and a silver-silver chloride electrode having a diameter of 1 mm were placed on a round cover glass having a diameter of 12 mm. PDMS having a circular cylinder shape with 10 mm in diameter and 6 mm in inner diameter and having a curvature radius of the corneal contact surface of 7.9 mm was secured onto the cover glass by using an adhesive. An Eppendorf tube was attached to a rear side (on the side opposite to the corneal contact surface (cover glass side)) for mount onto a slit-lamp. The inner space of the PDMS was filled with an atelocollagen gel and its curvature radius was adjusted to 7.9 mm.
A silver electrode and a silver chloride electrode having a diameter of 1 mm were placed on a PET sheet of 0.005×0.5×1 cm, at position of 1 mm from the distal end of the sheet on the eyeball side. The PET sheet, the silver electrode and the silver chloride electrode were thinly coated with a collagen gel. […]
By using thus prepared TER measuring device, a change in the corneal TER of a living rabbit was measured. […]
A 0.02% BAC was dropped onto the eye of the rabbit, and the resulting TER value was compared with the TER value before the administration. […] Prior to the BAC administration (indicated as “normal cornea” in FIG. 7) as well as after the BAC administration, within one second after the device was contacted with the cornea, a stable TER value could be measured.

benzalkonium chloride [BAC]
TER value ([1]; after a lapse of 60 seconds): 175±14 Ωcm^2
TER (TER before the administration of the BAC set to 100%) ([1]; after a lapse of 60 seconds, p<0.01): 13.5±2.1%
TER (TER before the administration of the BAC set to 100%) ([1]; ten seconds after the administration): 35.1±6.8%
TER (TER before the administration of the BAC set to 100%) (cornea of a rabbit; 60 seconds after the administration): 19.7±5.9%
TER value (cornea of a rabbit; after a lapse of 60 seconds): 138±10 Ωcm^2
Change of TER compared with the TER value before the administration [2]: significantly reduced
